Target: T1, hERG K+ channel (Kv11.1) (Homo sapiens, UniProt Q12809)
T1 construct: gene KCNH2
Assay: two-microelectrode voltage clamp, hERG tail current inhibition in Xenopus oocytes; alanine mutants Y652A and F656A reduce block
Assay type: cell-based

T1 sequence (Q12809 whole entry): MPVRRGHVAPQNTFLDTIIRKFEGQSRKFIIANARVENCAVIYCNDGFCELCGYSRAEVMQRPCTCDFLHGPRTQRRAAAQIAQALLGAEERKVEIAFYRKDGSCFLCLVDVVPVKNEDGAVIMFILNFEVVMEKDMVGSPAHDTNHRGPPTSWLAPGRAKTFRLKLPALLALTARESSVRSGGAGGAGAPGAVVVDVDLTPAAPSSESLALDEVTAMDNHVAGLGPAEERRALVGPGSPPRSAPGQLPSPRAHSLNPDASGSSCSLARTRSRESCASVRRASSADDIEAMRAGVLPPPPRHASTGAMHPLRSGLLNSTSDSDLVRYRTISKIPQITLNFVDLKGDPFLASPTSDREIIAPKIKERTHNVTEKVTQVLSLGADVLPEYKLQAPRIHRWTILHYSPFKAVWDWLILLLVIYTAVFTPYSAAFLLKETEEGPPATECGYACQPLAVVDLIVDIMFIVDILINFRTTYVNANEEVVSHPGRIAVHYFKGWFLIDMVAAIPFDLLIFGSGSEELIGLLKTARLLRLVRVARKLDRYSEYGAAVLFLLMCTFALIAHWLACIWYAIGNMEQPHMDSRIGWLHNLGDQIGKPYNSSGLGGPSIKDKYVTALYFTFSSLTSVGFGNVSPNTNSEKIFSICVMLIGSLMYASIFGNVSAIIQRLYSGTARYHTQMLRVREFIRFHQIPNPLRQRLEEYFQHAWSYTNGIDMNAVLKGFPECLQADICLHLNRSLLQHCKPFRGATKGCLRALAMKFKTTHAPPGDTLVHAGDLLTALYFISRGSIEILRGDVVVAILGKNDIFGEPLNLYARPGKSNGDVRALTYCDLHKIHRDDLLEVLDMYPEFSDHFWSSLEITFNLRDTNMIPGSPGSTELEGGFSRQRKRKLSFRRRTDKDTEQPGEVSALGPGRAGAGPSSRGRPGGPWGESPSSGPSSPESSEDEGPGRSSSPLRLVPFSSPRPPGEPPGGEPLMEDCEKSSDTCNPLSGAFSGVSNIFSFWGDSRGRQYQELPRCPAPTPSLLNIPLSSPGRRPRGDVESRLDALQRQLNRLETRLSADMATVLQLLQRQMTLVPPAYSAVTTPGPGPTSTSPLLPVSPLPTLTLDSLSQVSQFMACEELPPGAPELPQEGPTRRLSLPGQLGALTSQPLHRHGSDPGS

`O=C(CCc1ccccc1)c1ccccc1OCC(O)CN1CCN(C(c2ccccc2)(c2ccccc2)c2ccccc2)CC1` (stereo not shown) [FB213, 1-[2-(2-hydroxy-3-(4-tritylpiperazin-1-yl)-propoxy)phenyl]-3-phenylpropan-1-one] gave an IC50 of 47.1 ± 5.1 µM.
